These results are taken from patent publication US11465974B2, “Crystalline polymorphs of Pracinostat and Pracinostat salts” (ASSIA CHEMICAL INDUSTRIES LTD., priority 2017, dated 2022).

What all share (assay type): physicochemical
Series [1] in a line: Physical pressure stability test. The note with it: 3 ton pressure for 1 minute at room temperature. The procedure:
Physical pressure stability test: The tested sample was exposed to 3 ton pressure for 1 minute at room temperature.

Series [2] can be described thus: Polymorphic stability at relative humidity 0% to 100%. The note with it: RH of from 0% to 100%, room temperature.
A short description of series [3]: Thermal stability test. As to conditions: heated to 100° C. for 30 minutes at open dish. The procedure:
Thermal stability test: The tested sample was heated to temperature of 100° C. for 30 minutes at open dish.

Series [4] is described as follows: Hygroscopicity (absorption of water, determined for example by TGA). The text has this:
As used herein the term non-hygroscopic in relation to crystalline forms of Pracinostat refers to less than 0.2% (w/w) absorption of water, by the crystalline form of Pracinostat, as determined for example by TGA. Water can be for example atmospheric water.

Series [5] can be described thus: Grinding stability test. As to conditions: ground by mortar and pestle for 1 minute at room temperature, without solvent or with one drop of ethanol, isopropyl alcohol or water. The procedure: Grinding stability test: The tested sample was grinded by moltal&pestle for 1 minute at room temperature either without a solvent or with one drop of solvent from the following solvents: Ethanol, Isopropyl alcohol and water.

Molecules are shown by their SMILES. Where a name gives a salt, the structure may show the parent alone.

For the molecule `CCCCc1nc2cc(/C=C/C(=O)NO)ccc2n1CCN(CC)CC` [Form P7, (E)-3-[2-Butyl-1-[2-(diethylamino)ethyl]-1H-benzo[d]imidazol-5-yl]-N-hydroxy-acrylamide], the “stability under physical pressure” value in series [1] was “stable”. Besides, the “period of polymorphic stability” value in series [2] is “at least 7 days”. In addition, the “stability under thermal test” value in series [3] is recorded as “stable”. Also, the “absorption of water (hygroscopicity)” value in series [4] is given as “less than 0.2 % (w/w)”. The stability under grinding entry in series [5] was “stable”.
Regarding `CCCCc1nc2cc(/C=C/C(=O)NO)ccc2n1CCN(CC)CC` [Pracinostat sulfate Form S1], the “stability under physical pressure” value in series [1] is recorded as “stable”. Moreover, the “period of polymorphic stability” value in series [2] is given as “at least 7 days”. Moreover, the “stability under thermal test” value in series [3] is listed as “stable”. Besides, in series [4], the “absorption of water (hygroscopicity)” value was “less than 2 % (w/w)”. Moreover, in series [5], the stability under grinding entry is “stable”.
In the case of `CCCCc1nc2cc(/C=C/C(=O)NO)ccc2n1CCN(CC)CC` [Form P3, (E)-3-[2-Butyl-1-[2-(diethylamino)ethyl]-1H-benzo[d]imidazol-5-yl]-N-hydroxy-acrylamide], the “stability under physical pressure” value in series [1] was “stable”. In addition, the “period of polymorphic stability” value in series [2] is on record as “at least 7 days”. The “stability under thermal test” value in series [3] is reported as “stable”. For the same molecule, the “absorption of water (hygroscopicity)” value in series [4] is given as “less than 0.2 % (w/w)”. Besides, the stability under grinding entry in series [5] is recorded as “stable”.
